Assay results: ChEMBL document CHEMBL1121775, “Synthesis and antimalarial effects of N2-aryl-N4-[(dialkylamino)alkyl]- and N4-aryl-N2-[(dialkylamino)alkyl]-2,4-quinazolinediamines” (J Med Chem, 1981)
Where “and” joins values, the source holds several entries; their conditions need not be identical. Equal entries are not always repeated.

Assays:
[1] = The ratio of SD90 of the quinine hydrochloride, to the SD90 of the test substance for the Dose of 47 mg/kg; assay type: functional
Mus musculus [2] = experiment: Number of mice cured at a subcutaneous dose of 160 mg/kg.; assay type: functional
Mus musculus [3] = experiment: Number of toxic deaths at a dose of 640 mg/kg; assay type: toxicity, organism-based; parameters: dose 640 mg/kg; conditions: in vivo
Mus musculus [4] = experiment: Number of mice cured at a subcutaneous dose of 320 mg/kg.; assay type: functional
Plasmodium berghei [5] = experiment: Antimalarial activity against trophozoite-induced Plasmodium berghei in mice (Mus musculus) at 160 mg/kg subcutaneous dose; assay type: functional
Plasmodium berghei [6] = experiment: Antimalarial effect against trophozoite-induced Plasmodium berghei in mice (Mus musculus) after 20 mg/kg subcutaneous dose; assay type: functional
Mus musculus [7] = experiment: Number of mice cured at a dose of 640 mg/kg sc; assay type: functional; conditions: route subcutaneous
Plasmodium berghei [8] = experiment: Antimalarial effect against trophozoite-induced Plasmodium berghei in mice (Mus musculus) at 80 mg/kg subcutaneous dose; assay type: functional
Plasmodium berghei [9] = experiment: Antimalarial activity against trophozoite-induced Plasmodium berghei in mice (Mus musculus); assay type: functional
Plasmodium berghei [10] = experiment: Antimalarial effect against trophozoite-induced Plasmodium berghei in mice (Mus musculus) after 40 mg/kg subcutaneous dose; assay type: functional
Plasmodium berghei [11] = experiment: Antimalarial effect against trophozoite-induced Plasmodium berghei in mice (Mus musculus) at 320 mg/kg subcutaneous dose; assay type: functional
[12] = The ratio of SD90 of the quinine hydrochloride, to the SD90 of the test substance for the Dose of 9.2 mg/kg; assay type: functional
Plasmodium berghei [13] = experiment: Antimalarial effect against trophozoite-induced Plasmodium berghei in mice (Mus musculus) at 160 mg/kg subcutaneous dose; assay type: functional
[14] = The ratio of SD90 of the quinine hydrochloride, to the SD90 of the test substance for the Dose of 2.2 mg/kg; assay type: functional
Plasmodium berghei [15] = experiment: (§1) Antimalarial effect against trophozoite-induced Plasmodium berghei in mice (Mus musculus) at 640 mg/kg subcutaneous dose; assay type: functional
Mus musculus [16] = experiment: Number of mice cured at a subcutaneous dose of 640 mg/kg.; assay type: functional
Mus musculus [17] = experiment: Number of mice cured at a dose of 320 mg/kg sc; assay type: functional; conditions: route subcutaneous
[18] = The ratio of SD90 of the quinine hydrochloride, to the SD90 of the test substance for the Dose of 16 mg/kg; assay type: functional
[19] = The ratio of SD90 of the quinine hydrochloride, to the SD90 of the test substance for the Dose of 74.5 mg/kg; assay type: functional
Plasmodium berghei [20] = experiment: as §1; assay type: functional; remark: listed apart in the source
[21] = The ratio of SD90 of the quinine hydrochloride, to the SD90 of the test substance for the Dose of 46 mg/kg; assay type: functional
[22] = The ratio of SD90 of the quinine hydrochloride, to the SD90 of the test substance for the Dose of 22 mg/kg; assay type: functional
Mus musculus [23] = experiment: Antimalarial effect against trophozoite-induced Plasmodium berghei in mice (Mus musculus) at dosage of 20 mg/kg after subcutaneous administration.; assay type: functional
Mus musculus [24] = experiment: Antimalarial effect against trophozoite-induced Plasmodium berghei in mice (Mus musculus) at dosage of 640 mg/kg after subcutaneous administration; No. of mice (Mus musculus) surviving after 60 days 4; assay type: functional
[25] = The ratio of SD90 of the quinine hydrochloride, to the SD90 of the test substance for the Dose of 63 mg/kg; assay type: functional
[26] = The ratio of SD90 of the quinine hydrochloride, to the SD90 of the test substance for the Dose of 35 mg/kg; assay type: functional

Structure (SMILES)	No. of survivals (Mus musculus [4])	MST (Plasmodium berghei [8]) [days]	SD90 (Plasmodium berghei [9]) [mg/kg/day]	MST (Plasmodium berghei [10]) [days]	MST (Plasmodium berghei [10]; 40 mg/kg)	MST (Plasmodium berghei [6]) [days]	MST (Plasmodium berghei [11]) [days]	MST (Plasmodium berghei [13]; 160 mg/kg)	MST (Plasmodium berghei [13]) [days]	also measured
CCN(CC)CCNc1nc(Nc2ccc(Cl)c(Cl)c2)nc2ccc(N)cc12	5	6.8	47	3.8	–	–	–	–	–	Ratio [1]: 1.6; No. of survivals (Mus musculus [2]): 4; No. of toxic deaths (Mus musculus [3]): 2; MST (Plasmodium berghei [5]): 29.8 days; MST (Plasmodium berghei [6]; 20 mg/kg): 1.6 days and 2 days; No. of survivals (Mus musculus [7]): 3
CN(C)C1CCC(Nc2nc(Nc3ccc(Cl)c(Cl)c3)nc3ccccc23)CC1 (stereo in doubt; 24)	3	6.4	9.2	–	4.8 days and 3.8 days	–	–	–	–	No. of survivals (Mus musculus [2]; 160 mg/kg): 1 and 2; MST (Plasmodium berghei [5]; 160 mg/kg): 20.1 days and 16.5 days; MST (Plasmodium berghei [6]; 20 mg/kg): 0.4 days; MST (Plasmodium berghei [11]; 320 mg/kg): 24.3 days; Ratio [12]: 8.2
CCN1CCCC(Nc2nc(Nc3ccc(Cl)c(Cl)c3)nc3ccccc23)C1 (centres undefined)	–	1	2.2	–	0.6 days and 0.5 days	0.4	13.8	6.2 days and 7.3 days	–	Ratio [14]: 34; MST (Plasmodium berghei [15]; 640 mg/kg): 13.8 days and 24.2 days; No. of cured (Mus musculus [16]; 640 mg/kg): 3 and 2
CN1CCCC1CCNc1nc(Nc2ccc(C(F)(F)F)cc2)nc2ccccc12 (centres undefined)	–	3.2	16	1.2	–	1	15.5	–	10.5	No. of cured (Mus musculus [17]): 2; Ratio [18]: 4.7; MST (Plasmodium berghei [15]): 25.8 days; No. of cured (Mus musculus [16]): 4
C=C[C@H]1CN2CC[C@H]1C[C@H]2[C@H](O)c1ccnc2ccc(OC)cc12 [QUININE]	–	1.4	74.5	1	–	0.2	3.2	–	2	Ratio [19]: 1; MST (Plasmodium berghei [20]): 5.4 days
CCN1CCCC(Nc2nc(Nc3ccc(Cl)c(Cl)c3)nc3ccc(Cl)cc23)C1 (centres undefined)	–	–	46	0.1	–	0.1	–	–	0.3	Ratio [21]: 1.6
FC(F)(F)c1ccc(Nc2nc(NCCCN3CCCC3)c3cc(Cl)ccc3n2)cc1	1	1.6	22	0.4	–	0.2	14.6	4.6 days and 4 days	–	Ratio [22]: 3.4; No. of survivals (Mus musculus [7]; 640 mg/kg): 2 and 3; MST (Mus musculus [23]): 0.4 days; MST (Plasmodium berghei [15]; 640 mg/kg): 26.5 days and 23.3 days
CCN(CC)CCNc1nc(Nc2ccc(Cl)c(Cl)c2)nc2cc([N+](=O)[O-])ccc12	–	0.9	9.2	0.3	–	0.3	9.5	0.9 days and 1.1 days	–	No. of survivals (Mus musculus [7]): 3; Ratio [12]: 8.1; MST (Mus musculus [24]): 21.9 days; MST (Plasmodium berghei [15]): 26.9 days
CCN1CCCC(Nc2nc(Nc3ccc(Cl)c(Cl)c3)nc3cc(Cl)ccc23)C1 (centres undefined)	–	0.3	63	–	–	0.1	0.3	–	–	Ratio [25]: 1.2
CSc1ccc(Nc2nc(NCCN3CCCC3)c3ccccc3n2)cc1	–	3.3	35	–	0.9 days and 0.3 days	0.7	10.3	5.9 days and 4.7 days	–	Ratio [26]: 2.1
